Laboratory results reported in patent publication US20250281478A1, “METHODS FOR PREVENTING OR TREATING KIDNEY DISEASES” (JEAMOON BEIJING CO., LTD., priority 2022, published 2025).

Experiments:
Format in all cases: in vivo, C57BL/6N mice
[1] = test system: mice with adenine-induced renal failure; experiment: Survival of mice with adenine-induced renal failure; settings: for Survival Rate (%): started 1 week after start of continued 0.25% adenine diet, end of experiment; for Count after Drug Administration (surviving mice): 12 at enrollment
Description: • 1. Experimental Animals: C57BL/6N, 8 weeks old, SPF grade, male. • 2. Experimental Drugs: • LY2922470 (Shanghai Taoshu Biotechnology Co., Ltd.) • TAK875 (Shanghai Taoshu Biotechnology Co., Ltd.)
1) Preparation of TAK875: A total of 27 mg of TAK875 powder was accurately weighed using an analytical balance and dissolved in 9 mL of 0.8% CMC-Na solution. The mixture was sonicated for 5 minutes to form a 3 mg/mL white suspension. The suspension was stored at 4° C. for later use.
2) Preparation of LY2922470: A total of 80 mg of LY2922470 yellow crystals was added to 200 μL of DMSO to form a clear yellow solution. The solution was gradually added in batches to 10 mL of 0.8% CMC-Na solution. After heating and sonication for 5 hours, an 8 mg/mL white suspension of LY2922470 was obtained. The suspension was stored at 4° C. for later use.
Eight-week-old male C57BL/6N mice were acclimatized for one week and then randomly divided into six groups. Except for the control group, all mice were fed a 0.25% adenine-containing diet for modelling. The control group received a normal diet. The mice had free access to food. One week after model induction, mice in each group were orally administered the corresponding drug once daily in the afternoon, according to their group assignment. The control group and the model group received vehicle under a same condition. During the treatment period, the adenine-containing diet was continued. Mouse survival was monitored until the end of the experiment.

[2] = test system: mice with two-week adenine-induced renal failure; experiment: Glomerular filtration rate in mice with two-week adenine-induced renal failure; settings: adenine diet replaced with normal chow after two weeks; LY2922470 p.o.; FIG. 5
Excerpt: Therefore, the modeling protocol was redesigned to re-evaluate the therapeutic effect of LY2922470 on renal failure (the adenine diet was replaced with normal chow after two weeks of feeding; other conditions remained unchanged).

[3] = test system: mice with adenine-induced renal failure; experiment: Renal fibrosis by Masson's trichrome staining in adenine-induced renal failure mice; settings: LY2922470 30 mg/kg/day orally for 2 weeks; 3 weeks of modeling; FIG. 6
Description: Mice were modeled and administered drugs as described in Example 3. After two weeks of drug administration, the mice were euthanized, and their kidneys were fixed, sectioned, stained with Masson's trichrome, and analyzed.
Whole-slide scanning was performed using a fully automated digital pathology scanner KF-PRO-120 from Ningbo Jiangfeng Bioinformatics Technology Co., Ltd. Masson-stained images were analyzed using the Area Quantification module in HALO software. The blue staining of collagen fibers was used as the unified criterion for positivity. The images were analyzed, and the percentage of blue-stained collagen fibers in the tissue was calculated.
Statistical analysis was conducted using GraphPad Prism 8.0. Continuous data for each group were expressed as mean+SD. One-way ANOVA was used for multi-group comparisons, and Student's t-test was used for comparisons between two groups. A p-value<0.05 was considered statistically significant. For categorical data, chi-square tests were used for comparisons among groups, and a p-value<0.05 was considered statistically significant.

[4] = test system: mice with adenine-induced renal failure; experiment: Blood urea nitrogen (BUN) in adenine-induced renal failure mice; settings: for BUN after modeling for 3 weeks (after drug administration for 2 weeks) / BUN after modeling for 1 week (before drug administration): mean ± SD
Description: • a) Control group: Fed with adenine-free feed; other procedures were the same as those in the model group. • b) Model group: Fed with feed containing 0.25% adenine for modelling. • c) LY-10 mg/kg group: Model+LY2922470 (10 mg/kg, p.o., QD). • d) LY-30 mg/kg group: Model+LY2922470 (30 mg/kg, p.o., QD). • e) LY-60 mg/kg group: Model+LY2922470 (60 mg/kg, p.o., QD). • f) TAK875 group: Model+TAK875 (30 mg/kg, p.o., QD).
Except for the control group, all other mice were fed with a diet containing 0.25% adenine for modelling. The control group was fed with a normal diet. All mice were allowed free access to food. One week after modeling, each group of mice was administered the respective treatment via oral gavage once daily in the afternoon for two consecutive weeks. The control group and the model group received vehicle under a same condition. The adenine-containing diet was continuously administered for modeling throughout the treatment period until the end of the experiment. The physical condition of the mice was monitored, and body weight was measured and recorded weekly. Blood samples were collected from the orbital venous plexus at 1 week (post-modeling) and 3 weeks (after 2 weeks of treatment). Serum was separated for the measurement of serum creatinine (CRE) and blood urea nitrogen (BUN). At the end of the two-week treatment, renal function of each group was assessed using a TGFR renal function monitoring and smart analysis system. After testing, tissues were collected from the mice to confirm the efficacy of the treatment.
Statistical analyses were performed using GraphPad Prism 8.0 software. Continuous data of each group were expressed as mean+SD. One-way ANOVA was used for multi-group comparisons, and Student's t-test was used for comparisons between two groups. A p-value<0.05 was considered statistically significant. For categorical data, chi-square tests were used to compare between groups, with p<0.05 indicating a statistically significant difference.
Mice were fed a 0.25% adenine-containing diet. After one week, the mice were treated with LY2922470 or TAK875. During the treatment period, the adenine-containing diet was continued for modeling. After three weeks of adenine feeding (i.e., two weeks of drug administration), blood samples were collected from the mice, and serum was isolated for CREA and BUN measurements.

SMILES: CC#C[C@@H](CC(=O)O)c1ccc(OCc2ccc(CN3CCCc4cccc(OC)c43)s2)cc1 [LY2922470]
- Survival Rate (%) ([1]; LY2922470 10 mg/kg p.o. QD): 0%
- Count after Drug Administration (surviving mice) ([1]; LY2922470 10 mg/kg p.o. QD): 0
- Day of adenine feeding by which all mice had died ([1]; LY2922470 10 mg/kg p.o. QD, deaths began on day 20): ≤ 27 days
- Survival Rate (%) ([1]; LY2922470 30 mg/kg p.o. QD, 30 mg/kg): 100%
- Survival Rate (%) ([1]; LY2922470 30 mg/kg p.o. QD, listed as LY): 100%
- Count after Drug Administration (surviving mice) ([1]; LY2922470 30 mg/kg p.o. QD): 12
- Final survival rate relative to the TAK875 group ([1]; LY2922470 30 mg/kg vs TAK875 30 mg/kg): double
- Survival Rate (%) ([1]; LY2922470 60 mg/kg p.o. QD, listed as LY): 50%
- Count after Drug Administration (surviving mice) ([1]; LY2922470 60 mg/kg p.o. QD): 6
- Dose with optimal effect (survival) ([1]; from Table 1 survival data, p.o.): 30 mg/kg/day
- Renal function (GFR) compared with the model group [2]: significantly improved
- Collagen deposition (Masson staining) [3]: decreased
- Degree of renal fibrosis (Masson staining) [3]: alleviated
- Extracellular matrix (ECM) accumulation [3]: inhibited
- BUN level compared with the model group ([4]; LY2922470 30 mg/kg p.o. QD for 2 weeks): statistically significant reduction
- BUN after modeling for 3 weeks (after drug administration for 2 weeks) ([4]; LY2922470 30 mg/kg p.o. QD): 15.15 ± 4.53 mmol/L
- BUN after modeling for 3 weeks (after drug administration for 2 weeks) ([4]; LY2922470 60 mg/kg p.o. QD): 13.85 ± 1.33 mmol/L
- Serum BUN level compared with the model group ([4]; LY2922470 at different doses p.o. QD for 2 weeks): reduced
- BUN after modeling for 1 week (before drug administration) ([4]; baseline of the LY2922470 10 mg/kg group): 10.34 ± 3.55 mmol/L
- BUN after modeling for 1 week (before drug administration) ([4]; baseline of the LY2922470 30 mg/kg group): 10.25 ± 3.42 mmol/L
- BUN after modeling for 1 week (before drug administration) ([4]; baseline of the LY2922470 60 mg/kg group): 10.40 ± 3.83 mmol/L
